Reference: US20180346518A1, “LYSOBACTIN FOR USE IN THE TREATMENT OF BOVINE MASTITIS” (BAYER ANIMAL HEALTH GMBH, priority 2015, published 2018)
Numbered stars: 1 amine (or outer) side, 2 acyl side, 3 side chain; on linkers, the order of the positions; unused ones are H or OH. Bridge positions count the residues as written; N and C are the ends. Square brackets hold non-standard residues; d marks the D form. Peptide text beside a SMILES is read from it. Phe(3R-OH) = O=C([C@@H](N[*:1])[C@H](O[*:3])c1ccccc1)[*:2]; Asn(3S-OH) = NC(=O)[C@@H](O)[C@H](N)C(=O)O; Leu(3R-OH) = CC(C)[C@@H](O)[C@H](N)C(=O)O; aThr = C[C@H](O)[C@H](N)C(=O)O

How the values were obtained:
[1] = tested on: Staphylococcus aureus; assay: dairy cow udder infection model with S. aureus; assay type: in vivo, lactating dairy cows
Procedure: Fifteen healthy lactating dairy cows were experimentally infected with the mastitis pathogen Staphylococcus aureus on all four udder quarters. […] Treatments were randomly assigned to 42 udder quarters in total, either 50 mg lysobactin per quarter (in 11 quarters), or 150 mg Lysobactin (in 11 quarters), or Ubrolexin® (in 9 quarters), or saline solution (in 11 quarters). Only udder quarters that were bacteriologically positive for the challenge organism immediately prior to treatment (n=42) were eligible for assessment of microbiological and clinical cure. The diseased quarters were treated with these intramammary formulations two times with an interval of 24 hours in between. Udders were clinically examined and milk samples were taken before treatment and several times after that until three weeks after the second administration. Milk was inspected visually for deviation in its consistency and samples were evaluated for presence of the challenge organism and for somatic cell count to confirm the diagnosis mastitis. Diseased udder quarters were considered microbiologically cured when Staphylococcus aureus found in milk samples shortly before treatment could not be isolated from any milk sample taken within the time period between the third and the twenty-first day after the second treatment. Clinical cure was achieved when the local symptoms of mastitis had completely disappeared, and recovery of somatic cell counts (SCC) as parameter of udder inflammation was attained when all counts remained below 500.000 cells per mL of milk in the period mentioned above.

[2] = tested on: Staphylococcus aureus ATCC 29740; assay: in vitro kill kinetics in milk; assay type: cell-based; settings: at 24 h; full-fat milk; 4, 8, 16, 32 and 64 μg/mL
Procedure: (§1) In order to assess the ability of lysobactin to kill bacteria in milk, flasks containing different concentrations of lysobactin in store-bought full-fat milk were inoculated with 1-2×10^6 colony forming units/ml of a representative strain of either Staphylococcus aureus or Streptococcus uberis. The flasks were incubated for 24-48 hours in a shaking water bath at 35+/−2° C., and viable bacterial counts in each flask were determined at several time-points by diluting and plating samples on agar plates. A reduction of the number of viable bacteria in the initial inoculum by at least 99.9% is defined as bactericidal activity.
(§2) The kill kinetics of lysobactin against Staphylococcus aureus ATCC 29740 and Streptococcus uberis ATCC 27958 in milk were determined for concentrations of lysobactin of 4, 8, 16, 32 and 64 μg/mL. Results are depicted in FIG. 1 (CFU: colony forming units). A cidality at 24 h and 48 h, respectively, can be postulated for S. aureus and S. uberis.

[3] = tested on: Streptococcus uberis ATCC 27958; assay: in vitro kill kinetics in milk; assay type: cell-based; settings: at 48 h; full-fat milk; 4, 8, 16, 32 and 64 μg/mL
Procedure: as §1, §2

[4] = tested on: S. uberis; assay: resistance development during serial passaging; assay type: cell-based, Streptococcus uberis; settings: constant sub-MIC exposure, 33 days
Procedure: The appearance of MIC changes during constant exposure of bacteria to sub-MIC concentrations of lysobactin was assessed by serial passaging experiments. On the first day the MICs of S. aureus and S. uberis were assessed by microbroth dilution MIC methodology as described by the Clinical and Laboratory Standards Institute (CLSI). Each day for the following 33 consecutive days, bacteria from the well containing the highest concentrations allowing full growth were collected and used to inoculate new 96-well plates and to assess the MIC during constant exposure to lysobactin. The MIC obtained on each day was plotted over time. Rifampicin, which is known to result in quick changes of the MIC, was used as positive control.

[5] = tested on: Staphylococcus aureus ATCC 29740; assay: spontaneous resistance development; assay type: cell-based; settings: for obtained colonies: plated CFU 3.52 × 10^9
Procedure: (§3) The frequency of spontaneous resistance development was assessed by plating at least 1×10^9 colony forming units of the respective bacterial strain on agar plates containing lysobactin at either 4× or 8× the MIC and incubating the plates at 35+/−2° C. […] The resulting number is defined as the spontaneous resistance frequency, and is an indication for the likelihood of resistant isolates to appear during an infection.

[6] = tested on: Streptococcus uberis ATCC 27958; assay: spontaneous resistance development; assay type: cell-based; settings: for obtained colonies: plated CFU 2.4 × 10^10
Procedure: as §3

[7] = tested on: Streptococcus uberis; assay: Streptococcus uberis challenge mouse mastitis model; assay type: in vivo, lactating mice; settings: 100, 200, 400 or 800 μg/gland hydrogel, 18 h after infection; all glands, with one exception in the highest dosing group
Procedure: The efficacy of lysobactin (formulated in a hydrogel at pH 4.7) was tested in a Streptococcus uberis challenge mouse mastitis model. Twenty lactating mice were experimentally infected on the fourth pair of mammary glands with S. uberis around 12-15 days after birth of the offspring. Four hours after inoculation, groups of four mice were treated on the same glands with lysobactin at 100, 200, 400, or 800 μg/gland formulated as hydrogel. The fifth group was treated solely with the hydrogel vehicle as negative control. Eighteen hours after infection the animals were euthanized, the glands were removed, homogenized, and bacterial colony forming units (CFUs) were determined by established microbiological methods. Subsequently CFU/mL homogenate as well as CFU/g of gland were calculated. The detection limit was approximately 100 CFU/g of gland. Antimicrobial activity of lysobactin against Strep uberis was determined by comparison of the mean CFUs/gland of the different dosing groups and the negative control group.

[8] = 50 mg per quarter, Day 3 after second treatment
[9] = 50 mg per quarter, Day 21 after second treatment
[10] = 150 mg per quarter, Day 3 after second treatment
[11] = 150 mg per quarter, Day 21 after second treatment

Compound: CC[C@H](C)[C@@H]1NC(=O)[C@@H](CCCNC(=N)N)NC(=O)[C@H](CC(C)C)NC(=O)[C@H]([C@H](O)C(C)C)NC(=O)[C@@H](NC(=O)[C@H](CC(C)C)NC(=O)[C@H](N)CC(C)C)[C@@H](c2ccccc2)OC(=O)[C@H](CO)NC(=O)[C@H]([C@H](O)C(N)=O)NC(=O)CNC(=O)[C@H]([C@H](C)O)NC1=O [lysobactin] (H-[dL]L[Phe(3R-OH)][Leu(3R-OH)]L[dR]I[aThr]G[Asn(3S-OH)]S; ester 3-C)
- microbiological cure rate ([1]; 50 mg per quarter, 2 treatments 24 h apart, Day 3 after second treatment): 73%
- SCC recovery rate [1, 8]: 36%
- local clinical cure rate [1, 8]: 45%
- SCC recovery rate [1, 9]: 45%
- local clinical cure rate [1, 9]: 73%
- microbiological cure rate [1, 9]: 27%
- SCC recovery rate [1, 10]: 36%
- local clinical cure rate [1, 10]: 37%
- microbiological cure rate [1, 10]: 73%
- SCC recovery rate [1, 11]: 91%
- local clinical cure rate [1, 11]: 82%
- microbiological cure rate [1, 11]: 45%
- kill kinetics, bactericidal activity (cidality) [2]: cidality
- kill kinetics, bactericidal activity (cidality) [3]: cidality
- MIC change during serial passaging [4]: remain constant
- frequency of resistance ([5]; 24 h, 2 μg/ml (4x MIC)): <2.84 × 10^−10
- obtained colonies ([5]; 24 h, 2 μg/ml (4x MIC)): 0
- frequency of resistance ([5]; 24 h, 4 μg/ml (8x MIC)): <2.84 × 10^−10
- obtained colonies ([5]; 24 h, 4 μg/ml (8x MIC)): 0
- frequency of resistance ([5]; 48 h, 2 μg/ml (4x MIC)): <2.84 × 10^−10
- obtained colonies ([5]; 48 h, 2 μg/ml (4x MIC)): 0
- frequency of resistance ([5]; 48 h, 4 μg/ml (8x MIC)): <2.84 × 10^−10
- obtained colonies ([5]; 48 h, 4 μg/ml (8x MIC)): 0
- frequency of resistance ([6]; 24 h, 2 μg/ml (4x MIC)): <4.17 × 10^−11
- obtained colonies ([6]; 24 h, 2 μg/ml (4x MIC)): 0
- frequency of resistance ([6]; 24 h, 4 μg/ml (8x MIC)): <4.17 × 10^−11
- obtained colonies ([6]; 24 h, 4 μg/ml (8x MIC)): 0
- frequency of resistance ([6]; 48 h, 2 μg/ml (4x MIC)): <4.17 × 10^−11
- obtained colonies ([6]; 48 h, 2 μg/ml (4x MIC)): 0
- frequency of resistance ([6]; 48 h, 4 μg/ml (8x MIC)): <4.17 × 10^−11
- obtained colonies ([6]; 48 h, 4 μg/ml (8x MIC)): 0
- bacterial counts in glands [7]: < 10^2 CFU/g
